Assays:
USP16-UBD (USP16 25-185) [1] = biological target: T1, USP16-UBD (USP16 25-185) (Homo sapiens, UniProt Q9Y5T5); assay: biochemical; set-up: SPR, steady-state binding to immobilised biotinylated UBD proteins; conditions: read-out: SPR Kd µM (USP16)
[2] = biological target: T2, HDAC6-UBD (HDAC6 1109-1215) (Homo sapiens, UniProt Q9UBN7); assay: biochemical; set-up: SPR, steady-state binding to immobilised biotinylated UBD proteins; conditions: read-out: SPR Kd µM (HDAC6)
T2 sequence (Q9UBN7 1109-1215): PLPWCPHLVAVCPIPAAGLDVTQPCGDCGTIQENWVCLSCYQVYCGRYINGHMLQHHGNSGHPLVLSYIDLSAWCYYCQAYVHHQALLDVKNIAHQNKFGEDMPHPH

USP16-UBD (USP16 25-185) [3] = biological target: T1, USP16-UBD (USP16 25-185); assay: SPR, steady state; assay type: binding
[4] = biological target: T2, HDAC6-UBD (HDAC6 1109-1215); assay: SPR, steady state; assay type: binding
USP16-UBD (USP16 25-185) [5] = biological target: T1, USP16-UBD (USP16 25-185); assay: SPR, steady state; assay type: binding; conditions: pH […] °C, […] DMSO
[6] = biological target: T2, HDAC6-UBD (HDAC6 1109-1215); assay: SPR, steady state; assay type: binding; conditions: pH […] °C, […] DMSO

T1 sequence (Q9Y5T5 25-185): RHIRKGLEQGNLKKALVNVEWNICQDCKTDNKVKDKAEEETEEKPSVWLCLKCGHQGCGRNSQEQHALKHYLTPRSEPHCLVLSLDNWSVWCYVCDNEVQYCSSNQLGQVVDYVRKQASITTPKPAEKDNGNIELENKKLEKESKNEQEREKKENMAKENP

| Structure (SMILES) | Kd (USP16-UBD (USP16 25-185) [3]) [nM] | Kd [4] [nM] | also measured |
| --- | --- | --- | --- |
| Cn1c(CCC(=O)O)nc2ccccc2c1=O [DATR31] | – | – | Kd (USP16-UBD (USP16 25-185) [1]): 130 µM; Kd [2]: 2.7 µM |
| O=C(O)CCc1nc2ccccc2c(=O)n1CC(=O)NCc1ccccc1 [UBXXML47] | – | – | Kd (USP16-UBD (USP16 25-185) [1]): 11 µM |
| COc1ccccc1CNC(=O)Cn1c(CCC(=O)O)nc2ccccc2c1=O [UBXXML264] | – | – | Kd (USP16-UBD (USP16 25-185) [1]): 13 µM |
| COc1ccccc1CNC(=O)Cn1c(CCC(=O)O)nc2c(F)cccc2c1=O [UBXXML299] | – | – | Kd (USP16-UBD (USP16 25-185) [1]): 11 µM |
| O=C(O)CCc1nc2ccccc2c(=O)n1CC(=O)NCC1CCCCC1 [UBXXML9098] | – | – | Kd (USP16-UBD (USP16 25-185) [1]): 4.8 µM |
| COc1ccccc1C(C)N(C)C(=O)Cn1c(CCC(=O)O)nc2c(Cl)cccc2c1=O (stereo not shown) [compound 4, 3-(8-chloro-3-(2-((1-(2-methoxyphenyl)ethyl)(methyl)amino)-2-oxoethyl)-4-oxo-3,4-dihydroquinazolin-2-yl)propanoic acid] | – | – | KD (USP16-UBD (USP16 25-185) [5]): complete loss of binding activity for both USP16-UBD and HDAC6-UBD; KD [6]: complete loss of binding activity for both USP16-UBD and HDAC6-UBD |
| O=C(O)CCc1nc2c(Cl)cccc2c(=O)n1CC(=O)NCC1CCCOC1 (stereo not shown) [compound 6, 3-(8-Chloro-4-oxo-3-(2-oxo-2-(((tetrahydro-2H-pyran-3-yl)methyl)amino)ethyl)-3,4-dihydroquinazolin-2-yl)propanoic Acid] | 7800 ± 990 | 2100 ± 70 | – |
| CN(Cc1ccccc1F)C(=O)Cn1c(CCC(=O)O)nc2c(Cl)cccc2c1=O [compound 11, 3-(8-Chloro-3-(2-((2-fluorobenzyl)(methyl)amino)-2-oxoethyl)-4-oxo-3,4-dihydroquinazolin-2-yl)propanoic Acid] | 2500 ± 340 | 32300 ± 18200 | – |
| C[C@H](NC(=O)Cn1c(CCC(=O)O)nc2c(Cl)cccc2c1=O)c1ccccc1F [compound 12, (S)-3-(8-Chloro-3-(2-((1-(2-fluorophenyl)ethyl)amino)-2-oxoethyl)-4-oxo-3,4-dihydroquinazolin-2-yl)propanoic Acid] | 210 ± 30 | 50 ± 10 | – |
| C[C@@H](c1ccccc1F)N(C)C(=O)Cn1c(CCC(=O)O)nc2c(Cl)cccc2c1=O [compound 13, (S)-3-(8-Chloro-3-(2-((1-(2-fluorophenyl)ethyl)(methyl)amino)-2-oxoethyl)-4-oxo-3,4-dihydroquinazolin-2-yl)propanoic Acid] | 2900 ± 490 | 31300 ± 2500 | – |
| CC(NC(=O)Cn1c(CCC(=O)O)nc2c(Cl)cccc2c1=O)c1c(F)cccc1F (stereo not shown) [compound 14, 3-(8-chloro-3-(2-((1-(2,6-difluorophenyl)ethyl)amino)-2-oxoethyl)-4-oxo-3,4-dihydroquinazolin-2-yl)propanoic acid] | < 100 | – | – |

Further lines, with some results ahead:

| Kd (USP16-UBD (USP16 25-185) [3]) [nM] | Kd [4] [nM] | Structure (SMILES) | also measured |
| --- | --- | --- | --- |
| 5600 ± 2100 | – | COc1ccccc1CN(C)C(=O)Cn1c(CCC(=O)O)nc2c(Cl)cccc2c1=O [compound 2] | – |
| 440 | 50 ± 30 | COc1ccccc1C(C)NC(=O)Cn1c(CCC(=O)O)nc2c(Cl)cccc2c1=O (stereo not shown) [compound 3, 3-(8-chloro-3-(2-((1-(2-methoxyphenyl)ethyl)amino)-2-oxoethyl)-4-oxo-3,4-dihydroquinazolin-2-yl)propanoic acid] | – |
| 2900 ± 1200 | 650 ± 270 | CCOc1ccccc1CNC(=O)Cn1c(CCC(=O)O)nc2c(Cl)cccc2c1=O [compound 7, 3-(8-chloro-3-(2-((2-ethoxybenzyl)amino)-2-oxoethyl)-4-oxo-3,4-dihydroquinazolin-2-yl)propanoic acid] | – |
| 1800 ± 960 | – | Cc1ccccc1CNC(=O)Cn1c(CCC(=O)O)nc2c(Cl)cccc2c1=O [compound 8] | – |
| 1200 ± 600 | – | O=C(O)CCc1nc2c(Cl)cccc2c(=O)n1CC(=O)NCc1ccccc1Cl [compound 9] | – |
| 400 ± 150 | – | O=C(O)CCc1nc2c(Cl)cccc2c(=O)n1CC(=O)NCc1ccccc1F [compound 10] | – |

From paper doi:10.1101/2025.10.23.684218v2, “Development of a dual chemical probe for the USP16 and HDAC6 zinc-finger ubiquitin-binding domain” (biorxiv, 2025)
